For 25 molecules, IC50 results are on record in patent US20240246918A1, “COMPOUNDS AND COMPOSITIONS AS EIF4E INHIBITORS AND THE USES THEREOF” (Ribometrix, Inc., priority 2022, published 2024).

For one assay, the target named is T1, human eIF4E protein (Homo sapiens, UniProt P06730).
T1 construct: purchased Novus NBP-45314
Briefly: Biochemical competitive binding assay (TR-FRET competition, EDA-m7GDP-ATTO-647N probe). The note with it: read-out: hEIF4E TR-FRET IC50. A digest of the protocol:
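IC50 values come from 4-parameter fits of the normalized 665/620 nm TR-FRET ratio. Compound was first incubated 15 min with 4 nM recombinant His-eIF4E bound to 2.5 nM Eu-anti-His antibody, then 15 min with 5 nM m7GDP-ATTO-647N tracer, in pH 7.5 HEPES buffer with 100 mM KCl, Tween-20 and BSA.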

In assay [1] the test system is COLO 205 colorectal tumor cells. As to the kind of experiment: Tumor cell viability inhibition assay (CellTiter-Glo 2.0, 72 hours). The format is cell-based. The note with it: COLO 205 cell viability. A digest of the protocol:
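IC50 derived by 4-parameter fitting after normalizing luminescence to DMSO and max-inhibition wells. Compounds tested as 11 concentrations in 4-fold steps on COLO 205 cells seeded at 1500 per well in RPMI-1640/10% FBS; ATP content measured with CellTiter-Glo 2.0 after 72 h.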

Assay [2] concerns cap-dependent translation in Flp-In-293 reporter cells. As to the kind of experiment: Cellular cap-dependent translation inhibition assay (dual luciferase assay, DLA; Fluc/Rluc ratio, 24 hours). The format is cell-based. The note with it: dual luciferase assay, Flp-In-293 reporter cells, 24 hours, Fluc/Rluc ratio, read-out: DLA 205 IC50.

Like-named read-outs stand apart in the source and are kept apart here.

T1 sequence (P06730 whole entry): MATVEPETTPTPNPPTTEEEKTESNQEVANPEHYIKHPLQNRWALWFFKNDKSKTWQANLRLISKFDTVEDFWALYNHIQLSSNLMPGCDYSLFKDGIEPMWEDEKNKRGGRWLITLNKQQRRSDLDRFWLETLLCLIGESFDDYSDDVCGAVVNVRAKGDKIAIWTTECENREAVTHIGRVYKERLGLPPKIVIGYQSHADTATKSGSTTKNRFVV

Consider `Cc1cc(-c2cc(Cl)ccc2OCCn2c(C)nc3c(c2=O)CC(N(C)C24CC(C)(C2)C4(F)F)CC3)c2scc(C(=O)NS(C)(=O)=O)c2n1` (stereo not drawn) [Compound 288], for which the IC50 on human eIF4E protein was less than 100 nM; in assay [1] (Homo sapiens, COLO 205, 72 h), 5000 to 20000 nM; in assay [2] (Homo sapiens, Flp-In-293, 24 h), 1000 to 5000 nM.

Take `Cc1nc2c(c(=O)n1CC#Cc1ccc(Cl)cc1-c1ccnc3c(C(=O)NS(C)(=O)=O)csc13)CC(N1CC(F)(F)C1)CC2` (single isomer, unassigned) [Compound 331]: the IC50 at human eIF4E protein is 100 to 500 nM; in assay [1] (Homo sapiens, COLO 205, 72 h), 5000 to 20000 nM; in assay [2], 1000 to 5000 nM.

Regarding `Cc1cc(-c2cc(Cl)ccc2OCCn2c(C)nc3c(c2=O)CC(N2CCC4(COC4)C2)CC3)c2scc(C(=O)O)c2n1` (stereo not drawn) [Compound 26], the concentration for half-maximal inhibition (IC50) on human eIF4E protein was less than 100 nM; in assay [1] (Homo sapiens, COLO 205, 72 h), less than 5000 nM; in assay [2] (Homo sapiens, Flp-In-293, 24 h) it was less than 1000 nM.

`Cc1cc(-c2cc(Cl)ccc2OCCn2c(C)nc3c(c2=O)CC(N(C)C2CC(F)(F)C2)CC3)c2scc(C(=O)NS(C)(=O)=O)c2n1` (single isomer, unassigned) [Compound 93]: the IC50 at human eIF4E protein is less than 100 nM; in assay [1] (Homo sapiens, COLO 205, 72 h), less than 5000 nM; in assay [2] (Homo sapiens, Flp-In-293, 24 h), less than 1000 nM.

For the molecule `COc1cc(CN(C)C2CCc3nc(C)n(CCOc4ccc(Cl)cc4-c4cc(C)nc5c(C(=O)O)csc45)c(=O)c3C2)ccn1` (stereo not drawn) [Compound 248], the IC50 is less than 100 nM at human eIF4E protein; less than 5000 nM in assay [1] (Homo sapiens, COLO 205, 72 h); less than 1000 nM in assay [2] (Homo sapiens, Flp-In-293, 24 h).

For `Cc1cc(-c2cc(Cl)ccc2OCCn2c(C)cc3c(c2=O)CC2(CC3)CN(C)C2)c2scc(C(=O)O)c2n1` [Compound 269], the IC50 at human eIF4E protein is less than 100 nM; in assay [1] (Homo sapiens, COLO 205, 72 h), more than 20000 nM; in assay [2] (Homo sapiens, Flp-In-293, 24 h), more than 5000 nM.

For `COC(=O)c1csc2c(-c3cc(Cl)ccc3OCCn3c(C)nc4c(c3=O)CC(N(C)C3CC3)CC4)cc(C)nc12` (stereo not drawn) [Compound 358], the half-inhibitory concentration (IC50) at human eIF4E protein was in the range of 500 to 5000 nM; in assay [1] (Homo sapiens, COLO 205, 72 h) it was 5000 to 20000 nM; in assay [2] (Homo sapiens, Flp-In-293, 24 h), 1000 to 5000 nM.

Regarding `Cc1cc(-c2cc(Cl)ccc2OCCn2c(C)nc3c(c2=O)CC(N2CC(F)(F)C2)CC3)c2sccc2n1` (single isomer, unassigned) [Compound 340], the concentration for half-maximal inhibition (IC50) on human eIF4E protein is 500 to 5000 nM; in assay [1] (Homo sapiens, COLO 205, 72 h), more than 20000 nM; in assay [2] (Homo sapiens, Flp-In-293, 24 h), more than 5000 nM.

With `Cc1cc(-c2cc(Cl)ccc2OCCn2c(C)nc3c(c2=O)CC(N(C)Cc2cc[nH]c(=O)c2)CC3)c2scc(C(=O)O)c2n1` (single isomer, unassigned) [Compound 246], the IC50 was less than 100 nM at human eIF4E protein; more than 20000 nM in assay [1] (Homo sapiens, COLO 205, 72 h); more than 5000 nM in assay [2] (Homo sapiens, Flp-In-293, 24 h).

Regarding `Cc1cc(-c2cc(Cl)ccc2OCCn2c(C)nc3c(c2=O)CC(N(C)C2CC2)CC3)c2scc(C(=O)NS(=O)(=O)c3ccccn3)c2n1` (single isomer, unassigned) [Compound 286], the IC50 on human eIF4E protein is less than 100 nM; in assay [1] (Homo sapiens, COLO 205, 72 h) it was less than 5000 nM; in assay [2] (Homo sapiens, Flp-In-293, 24 h) it was less than 1000 nM.

For `Cc1cc(-c2cc(Cl)ccc2OCCn2c(C)nc3c(c2=O)CC(N2CC(F)C2)CC3)c2scc(C(=O)NS(C)(=O)=O)c2n1` (single isomer, unassigned) [Compound 343], the figures for the IC50 (at human eIF4E protein; in assay [1]; in assay [2]) were less than 100 nM, less than 5000 nM and less than 1000 nM, respectively.

As to `Cc1cc(-c2cc(Cl)ccc2OCCn2c(C)nc3c(c2=O)C[C@H](N2CC[C@@H](F)C2)CC3)c2scc(C(=O)NS(C)(=O)=O)c2n1` (single isomer, unassigned) [Compound 313], the IC50 on human eIF4E protein was less than 100 nM; in assay [1] (Homo sapiens, COLO 205, 72 h) it was less than 5000 nM; in assay [2] (Homo sapiens, Flp-In-293, 24 h), less than 1000 nM.

As to `Cc1cc(-c2cc(Cl)ccc2OCCn2c(C)nc3c(c2=O)CC(N2CCCCC2)CC3)c2ccc(C(=O)O)n2n1` (stereo not drawn) [Compound 45, 4-[5-chloranyl-2-[2-[2-methyl-4-oxidanylidene-6-(1-piperidyl)-5,6,7,8-tetrahydroquinazolin-3-yl]ethoxy]phenyl]-2-methyl-pyrrolo[1,2-b]pyridazine-7-carboxylic acid], the IC50 was less than 100 nM at human eIF4E protein; less than 5000 nM in assay [1] (Homo sapiens, COLO 205, 72 h); less than 1000 nM in assay [2] (Homo sapiens, Flp-In-293, 24 h).

In the case of `Cc1cc(-c2cc(Cl)ccc2OCCn2c(C)nc3c(c2=O)CC(N(C)C2CC2)CC3)c2scc(C(=O)NS(=O)(=O)c3ccncc3)c2n1` (single isomer, unassigned) [Compound 285], the results for the concentration for half-maximal inhibition (IC50) (on human eIF4E protein; in assay [1]; in assay [2]) were less than 100 nM, 5000 to 20000 nM and 1000 to 5000 nM, respectively.

As to `Cc1cc(-c2cc(Cl)ccc2OCCn2c(C)nc3c(c2=O)CC(N(C)Cc2ccncc2)CC3)c2scc(C(=O)O)c2n1` (stereo not drawn) [Compound 16], the half-inhibitory concentration (IC50) on human eIF4E protein was less than 100 nM; in assay [1] (Homo sapiens, COLO 205, 72 h) it was less than 5000 nM; in assay [2] (Homo sapiens, Flp-In-293, 24 h), less than 1000 nM.

For the molecule `CC(=O)N(C)C1CCc2nc(C)n(CCOc3ccc(Cl)cc3-c3cccc(C(=O)O)c3)c(=O)c2C1` (stereo not drawn) [Compound 15], the concentration for half-maximal inhibition (IC50) at human eIF4E protein was 500 to 5000 nM; in assay [1] (Homo sapiens, COLO 205, 72 h) it was more than 20000 nM; in assay [2] (Homo sapiens, Flp-In-293, 24 h), more than 5000 nM.

Take `Cc1sc2c(-c3cc(Cl)ccc3OCCn3c(C)nc4c(c3=O)CC(N(C)CC3CC(F)(F)C3)CC4)cn(C)c(=O)c2c1C(=O)O` (single isomer, unassigned) [Compound 253]: the half-maximal inhibitory concentration (IC50) was 100 to 500 nM on human eIF4E protein, more than 20000 nM in assay [1] and more than 5000 nM in assay [2].

With `Cc1cc(-c2cc(Cl)ccc2OCCn2c(C)nc3c(c2=O)CC(N(C)Cc2ccncc2)CC3)c2scc(C(=O)O)c2n1` (single isomer, unassigned) [Compound 354], the concentration for half-maximal inhibition (IC50) at human eIF4E protein was less than 100 nM; in assay [1], less than 5000 nM; in assay [2], less than 1000 nM.

On to `Cc1cc(-c2cc(Cl)ccc2OCCn2c(C)nc3c(c2=O)CC(N(C)CC(F)F)CC3)c2scc(C(=O)O)c2n1` (stereo not drawn) [Compound 58], for which the IC50 on human eIF4E protein is less than 100 nM; in assay [1] (Homo sapiens, COLO 205, 72 h), less than 5000 nM; in assay [2] (Homo sapiens, Flp-In-293, 24 h), less than 1000 nM.

On to `CO[C@@H]1CCN([C@H]2CCc3nc(C)n(CCOc4ccc(Cl)cc4-c4cc(C)nc5c(C(=O)O)csc45)c(=O)c3C2)C1` (single isomer, unassigned) [Compound 43], for which the IC50 on human eIF4E protein is less than 100 nM; in assay [1] (Homo sapiens, COLO 205, 72 h) it was less than 5000 nM; in assay [2] (Homo sapiens, Flp-In-293, 24 h), less than 1000 nM.

As to `Cc1nc2c(c(=O)n1CC#Cc1ccc(Cl)cc1-c1ccnc3c(C(=O)O)csc13)CC(N1CC(F)(F)C1)CC2` (stereo not drawn) [Compound 85], the concentration for half-maximal inhibition (IC50) is 100 to 500 nM on human eIF4E protein; less than 5000 nM in assay [1] (Homo sapiens, COLO 205, 72 h); 1000 to 5000 nM in assay [2] (Homo sapiens, Flp-In-293, 24 h).

Consider `Cc1nc2c(c(=O)n1CC#Cc1ccc(Cl)cc1-c1ccnc3c(C(=O)O)csc13)CC(N1CC(F)C1)CC2` (stereo not drawn) [Compound 355], for which the IC50 was less than 100 nM at human eIF4E protein; 5000 to 20000 nM in assay [1] (Homo sapiens, COLO 205, 72 h); less than 1000 nM in assay [2] (Homo sapiens, Flp-In-293, 24 h).

As for `Cc1cc(-c2cc(Cl)ccc2OCCn2c(C)nc3c(c2=O)CC(N2CC4(CN(C)C4)C2)CC3)c2scc(C(=O)O)c2n1` (stereo not drawn) [Compound 35], the IC50 was less than 100 nM at human eIF4E protein; more than 20000 nM in assay [1] (Homo sapiens, COLO 205, 72 h); more than 5000 nM in assay [2] (Homo sapiens, Flp-In-293, 24 h).

For the molecule `Cc1nc2c(c(=O)n1CC#Cc1ccc(Cl)cc1-c1ccnc3c(C(=O)O)csc13)CC(N1CCCCC1)CC2` (stereo not drawn) [Compound 357], the concentration for half-maximal inhibition (IC50) was less than 100 nM on human eIF4E protein; less than 5000 nM in assay [1] (Homo sapiens, COLO 205, 72 h); less than 1000 nM in assay [2] (Homo sapiens, Flp-In-293, 24 h).

With `Cc1cc(-c2cc(Cl)ccc2OCCn2c(C)nc3c(c2=O)CC(N(CC(F)(F)F)C2CCC2)CC3)c2scc(C(=O)NS(C)(=O)=O)c2n1` (stereo not drawn) [Compound 87], the half-maximal inhibitory concentration (IC50) at human eIF4E protein is less than 100 nM; in assay [1] (Homo sapiens, COLO 205, 72 h), less than 5000 nM; in assay [2] (Homo sapiens, Flp-In-293, 24 h), less than 1000 nM.
